Results published in US11081236B2, “Diagnostic and therapeutic methods for the treatment of breast cancer” (GENENTECH, INC., priority 2018, dated 2021).

Columns and labels:
Type in all cases: cell-based
[1] = test system: CAMA1; experiment: RNA sequencing after E2 or DMSO treatment, CAMA1
Description: (§1) To derive a transcriptional signature of ER pathway activity, RNA sequencing was performed on seven breast cancer cell lines following treatment with either DMSO or 1 μM estradiol (E2) for 24 hours. Briefly, RNA libraries for cell lines were made with TRUSEQ® RNA sample preparation kit (ILLUMINA®) according to the manufacturer's protocol. The libraries were sequenced on an ILLUMINA® Hi Seq 2000, using 1-4 lanes per cell line. RNA sequencing (RNA-seq) data were analyzed with HTSeqGenie (R package version 3.14.0) in BioConductor (Huber et al. Nature Methods. 112:115-21, 2015) as follows: reads were trimmed to 75 base pairs (bp), filtered for quality and rRNA/adapter contamination, and aligned to the reference genome GRCh38 using GSNAP (Wu et al. Bioinforma Oxf Engl. 26:873-81, 2010). Gene expression was quantified as Reads per Kilobase of exon model per Million mapped reads normalized by size factor (nRPKM), defined as number of reads aligning to a gene in a sample/(total number of uniquely mapped reads for that sample x gene length x size factor). Genes without gene symbol and genes of uncertain function (LOC and Corf symbols) were excluded.

[2] = test system: HCC1500; experiment: RNA sequencing after E2 or DMSO treatment, HCC1500
Description: as §1

[3] = test system: BT474; experiment: RNA sequencing after E2 or DMSO treatment, BT474
Description: as §1

[4] = test system: MDA-MB-330; experiment: RNA sequencing after E2 or DMSO treatment, MDA-MB-330
Description: as §1

[5] = gene BAMBI, 1 μM E2 24 hours vs DMSO
[6] = gene BCAS1, 1 μM E2 24 hours vs DMSO
[7] = gene CCNG2, 1 μM E2 24 hours vs DMSO
[8] = gene DDEE4, 1 μM E2 24 hours vs DMSO
[9] = gene EGLN3, 1 μM E2 24 hours vs DMSO
[10] = gene FAM1718, 1 μM E2 24 hours vs DMSO
[11] = gene GRM4, 1 μM E2 24 hours vs DMSO
[12] = gene IL1R1, 1 μM E2 24 hours vs DMSO
[13] = gene LIPH, 1 μM E2 24 hours vs DMSO
[14] = gene NBEA, 1 μM E2 24 hours vs DMSO
[15] = gene PNPLA7, 1 μM E2 24 hours vs DMSO
[16] = gene PSCA, 1 μM E2 24 hours vs DMSO
[17] = gene SEMASE, 1 μM E2 24 hours vs DMSO
[18] = gene SSPO, 1 μM E2 24 hours vs DMSO
[19] = gene STON1, 1 μM E2 24 hours vs DMSO
[20] = gene TGFB3, 1 μM E2 24 hours vs DMSO
[21] = gene TP53INP1, 1 μM E2 24 hours vs DMSO
[22] = gene TP53INP2, 1 μM E2 24 hours vs DMSO

C[C@]12CC[C@@H]3c4ccc(O)cc4CC[C@H]3[C@@H]1CC[C@@H]2O [Compound E2, estradiol]
Log2 FC E2 vs no E2: BAMBI [1, 5]: −1.072
Log2 FC E2 vs no E2: BCAS1 [1, 6]: −2.311
Log2 FC E2 vs no E2: CCNG2 [1, 7]: −2.094
Log2 FC E2 vs no E2: DDEE4 [1, 8]: −2.737
Log2 FC E2 vs no E2: EGLN3 [1, 9]: −1.533
Log2 FC E2 vs no E2: FAM1718 [1, 10]: −2.271
Log2 FC E2 vs no E2: GRM4 [1, 11]: −2.021
Log2 FC E2 vs no E2: IL1R1 [1, 12]: −1.686
Log2 FC E2 vs no E2: LIPH [1, 13]: −1.583
Log2 FC E2 vs no E2: NBEA [1, 14]: −1.550
Log2 FC E2 vs no E2: PNPLA7 [1, 15]: −2.068
Log2 FC E2 vs no E2: PSCA [1, 16]: −3.517
Log2 FC E2 vs no E2: SEMASE [1, 17]: −1.374
Log2 FC E2 vs no E2: SSPO [1, 18]: −2.298
Log2 FC E2 vs no E2: STON1 [1, 19]: −2.609
Log2 FC E2 vs no E2: TGFB3 [1, 20]: −1.444
Log2 FC E2 vs no E2: TP53INP1 [1, 21]: −3.177
Log2 FC E2 vs no E2: TP53INP2 [1, 22]: −2.068
Log2 FC E2 vs no E2: BAMBI [2, 5]: −1.438
Log2 FC E2 vs no E2: BCAS1 [2, 6]: −2.105
Log2 FC E2 vs no E2: CCNG2 [2, 7]: −1.525
Log2 FC E2 vs no E2: DDEE4 [2, 8]: −1.865
Log2 FC E2 vs no E2: EGLN3 [2, 9]: −2.504
Log2 FC E2 vs no E2: FAM1718 [2, 10]: −0.683
Log2 FC E2 vs no E2: GRM4 [2, 11]: −1.071
Log2 FC E2 vs no E2: IL1R1 [2, 12]: −1.943
Log2 FC E2 vs no E2: LIPH [2, 13]: −1.384
Log2 FC E2 vs no E2: NBEA [2, 14]: −1.190
Log2 FC E2 vs no E2: PNPLA7 [2, 15]: −1.376
Log2 FC E2 vs no E2: PSCA [2, 16]: −1.726
Log2 FC E2 vs no E2: SEMASE [2, 17]: −1.058
Log2 FC E2 vs no E2: SSPO [2, 18]: −1.304
Log2 FC E2 vs no E2: STON1 [2, 19]: −1.279
Log2 FC E2 vs no E2: TGFB3 [2, 20]: −1.214
Log2 FC E2 vs no E2: TP53INP1 [2, 21]: −1.777
Log2 FC E2 vs no E2: TP53INP2 [2, 22]: −1.073
Log2 FC E2 vs no E2: BAMBI [3, 5]: −1.153
Log2 FC E2 vs no E2: BCAS1 [3, 6]: −1.110
Log2 FC E2 vs no E2: CCNG2 [3, 7]: −0.935
Log2 FC E2 vs no E2: DDEE4 [3, 8]: −0.862
Log2 FC E2 vs no E2: EGLN3 [3, 9]: −0.118
Log2 FC E2 vs no E2: FAM1718 [3, 10]: −1.279
Log2 FC E2 vs no E2: GRM4 [3, 11]: −1.883
Log2 FC E2 vs no E2: IL1R1 [3, 12]: −1.490
Log2 FC E2 vs no E2: LIPH [3, 13]: −0.804
Log2 FC E2 vs no E2: NBEA [3, 14]: −0.346
Log2 FC E2 vs no E2: PNPLA7 [3, 15]: −1.427
Log2 FC E2 vs no E2: PSCA [3, 16]: −1.956
Log2 FC E2 vs no E2: SEMASE [3, 17]: −1.101
Log2 FC E2 vs no E2: SSPO [3, 18]: −1.739
Log2 FC E2 vs no E2: STON1 [3, 19]: −0.650
Log2 FC E2 vs no E2: TGFB3 [3, 20]: −0.304
Log2 FC E2 vs no E2: TP53INP1 [3, 21]: −1.496
Log2 FC E2 vs no E2: TP53INP2 [3, 22]: −2.069
Log2 FC E2 vs no E2: BAMBI [4, 5]: −1.352
Log2 FC E2 vs no E2: BCAS1 [4, 6]: −1.772
Log2 FC E2 vs no E2: CCNG2 [4, 7]: −1.009
Log2 FC E2 vs no E2: DDEE4 [4, 8]: −1.321
Log2 FC E2 vs no E2: EGLN3 [4, 9]: −2.785
Log2 FC E2 vs no E2: FAM1718 [4, 10]: −2.790
Log2 FC E2 vs no E2: GRM4 [4, 11]: −2.281
Log2 FC E2 vs no E2: IL1R1 [4, 12]: −0.941
Log2 FC E2 vs no E2: LIPH [4, 13]: −1.737
